The target in test [1] is 4-hydroxyphenylpyruvate dioxygenase (Rattus norvegicus) (UniProt P32755). The test is described as follows: Inhibition of Rattus norvegicus (rat) 4-hydroxyphenylpyruvate dioxygenase assessed as formation of homogentisate upto 20 uM by HGA dioxygenase coupling enzyme assay.
The target of test [2] is T1, 4-hydroxyphenylpyruvate dioxygenase (Arabidopsis thaliana, UniProt P93836).
T1 sequence (P93836 whole entry): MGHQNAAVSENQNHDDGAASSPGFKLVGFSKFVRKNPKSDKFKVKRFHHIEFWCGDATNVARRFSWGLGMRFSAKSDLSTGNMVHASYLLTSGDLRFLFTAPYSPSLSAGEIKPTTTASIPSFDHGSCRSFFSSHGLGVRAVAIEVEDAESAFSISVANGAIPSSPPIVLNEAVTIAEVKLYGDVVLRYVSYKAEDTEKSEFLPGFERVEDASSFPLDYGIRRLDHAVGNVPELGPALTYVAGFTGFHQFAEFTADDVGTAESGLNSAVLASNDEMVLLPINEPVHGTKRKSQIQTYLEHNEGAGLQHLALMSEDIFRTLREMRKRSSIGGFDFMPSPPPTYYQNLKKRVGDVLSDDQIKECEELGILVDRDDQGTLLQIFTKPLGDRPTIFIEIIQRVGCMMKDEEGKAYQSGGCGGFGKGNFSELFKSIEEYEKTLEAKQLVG
The test is described as follows: Inhibition of Arabidopsis thaliana 4-hydroxyphenylpyruvate dioxygenase assessed as formation of homogentisate by HGA dioxygenase coupling enzyme assay. The note with it: read-out: I50.

Test [3] deals with 4-hydroxyphenylpyruvate dioxygenase (Rattus norvegicus, UniProt P32755). The test is described as follows: Inhibition of Rattus norvegicus (rat) 4-hydroxyphenylpyruvate dioxygenase assessed as formation of homogentisate by HGA dioxygenase coupling enzyme assay. The note with it: read-out: I50.

Among the data in ChEMBL document CHEMBL3046924 (Biochemistry, 2004) are inhibition and IC50 values, retold here.

Activity calls are given as the source filed them. The rule behind the calls is not given here. A value given as a limit tells only on which side of the number the result lay.

4-hydroxyphenylpyruvate dioxygenase (Rattus norvegicus, UniProt P32755), sequence (P32755 whole entry): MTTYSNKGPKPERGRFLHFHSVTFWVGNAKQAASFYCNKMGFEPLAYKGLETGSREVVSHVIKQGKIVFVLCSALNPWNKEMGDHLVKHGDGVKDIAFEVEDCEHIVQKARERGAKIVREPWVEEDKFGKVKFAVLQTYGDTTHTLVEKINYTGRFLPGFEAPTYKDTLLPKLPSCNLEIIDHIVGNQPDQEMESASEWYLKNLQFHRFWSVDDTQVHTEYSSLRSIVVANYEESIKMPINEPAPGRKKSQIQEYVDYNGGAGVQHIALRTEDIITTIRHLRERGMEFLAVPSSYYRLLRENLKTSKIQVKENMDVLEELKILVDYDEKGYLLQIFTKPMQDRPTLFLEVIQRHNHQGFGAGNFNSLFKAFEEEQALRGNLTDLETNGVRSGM
4-hydroxyphenylpyruvate dioxygenase (Rattus norvegicus), sequence (P32755 whole entry): as above

Take `CC(C)(C)n1nc(-c2ccc(Cl)cc2Cl)c(C(=O)c2ccc(S(C)(=O)=O)cc2Cl)c1O`: the inhibition result in test [1] was “inactive”.

Turning to `COc1ccc(-c2c(S(C)(=O)=O)ccc(C(=O)c3cnn(C(C)(C)C)c3O)c2C)cc1`, the results for the IC50 in test [2] and in test [3] were 7 nM and less than 20 nM, respectively.
